# Experiments:
# [1] = test system: ERK phosphorylation in H358 cells; assay: In-cell western blot assay for ERK phosphorylation in H358 cells; format: cell-based; conditions: Homo sapiens, NCI-H358, 10000 nM to 0.051 nM, 3-fold dilution, read-out: H358 p-ERK IC50
# Procedure: In-Cell Western Blot Assay for ERK Phosphorylation in H358 Cells
# H358 cells were thawed and pre-cultured for 3 days to be in a good state (RPMI 1640+10% FBS+1% P/S). The cells were plated on to a 384-well plate, and a test compound, positive control compounds (AMG510 and isomers thereof) and a negative control were added. The compound was at concentrations from 10000 nM to 0.051 nM. 3-fold dilution was performed. The mixture was well mixed and incubated at 37° C. and 5% CO2. The cells were washed with PBS and suspended in methanol. After another washing with PBS, a blocking buffer was added. After 1 h of blocking at room temperature, a primary antibody mixture (rabbit anti pERK, mouse anti GAPDH) was added, followed by overnight incubation at 4° C. The cells were washed 3 times with PBST, and a secondary antibody mixture (goat anti rabbit 800CW and goat anti mouse 680RD) was added, followed by incubation at room temperature in the dark. The 384-well plate was reversed and centrifuged at 1000 rpm for 1 min, and read on an Odyssey CLx fluorescence imaging system for fluorescence signal values, which was corrected using DMSO and ARS1620. The specific calculation is as follows:
# Relative Signal=Signal Value(total channel 800)/Signal Value(total channel 700)
# Relative pERK=(Sample−Ave_L)/(Ave_H−Ave_L).
# The IC50 values of the compounds were calculated using a four-parameter fitting algorithm, specifically as follows:
# Y=Bottom+(Top−Bottom)/(1+10^((Log IC50−X)×HillSlope))
# [2] = target: KRAS G12C protein (GDP-KRAS-4B-G12C) (Homo sapiens, UniProt P01116, G12C); assay: Assay for binding rate to KRAS G12C protein by LC-MS method; conditions: 3 uM compound; for Binding rate to KRAS G12C protein (LC-MS POC, %) 3 uM/5 min: 5 min incubation at room temperature; for Binding rate to KRAS G12C protein (LC-MS POC, %) 3 uM/30 min: 30 min incubation at room temperature
# Procedure: Assay for Binding Rate to KRAS G12C Protein by LC-MS Method
# A 10 mM stock solution of a test compound in DMSO was prepared. […] An equal volume of GDP buffer (20 mM Hepes, pH 7.5, 50 mM NaCl, 0.5 mM MgCl2, 10 mM EDTA, 2 mM DTT, GDP) was added to prepare KRASG12C protein loaded with GDP.
# After incubation at room temperature for 5 min and 30 min, the reaction was terminated by addition of 5 μL of 5% formic acid. After being centrifuged at 15,000 rpm for 10 min, the mixture was subjected to LC-MS analysis and data analysis.
# The percent binding of a test compound to KRASG12C protein was calculated as: Percent binding to KRAS G12C (%)=peak height of conjugate of test compound and KRAS G12C protein/[peak height of conjugate of test compound and KRAS G12C protein+peak height of free KRAS G12C protein] x 100.
# [3] = Plasma protein binding (PPB), RED plate dialysis, rat plasma; format: in vitro ADME; conditions: 37° C., read-out: PPB (% free state) R
# Procedure: (§1) Human (H), Rat (R) and Mouse (M) Plasma Protein Binding (PPB)
# (§2) A test compound and a positive control were each mixed with blank plasma to a final concentration of 1 μM. The mixture was added to a RED plate plasma sample chamber, followed by addition of a dialysis buffer in the buffer chamber. The sample was prepared in triplicate for each compound. The chambers were sealed, and the plate was incubated at 37° C. with shaking at 60 rpm for 5 h. After incubation, the samples were transferred out of the plasma chamber and the buffer chamber and treated as shown in Table 5. After centrifugation at 5594 g for 15 min, the supernatant was collected and analyzed by LC/MS/MS.
# (§3) The compound concentration in each sample was expressed in terms of the ratio between peak areas (ratio of peak area of compound to peak area of internal standard) by mass spectrometry analysis, and the plasma protein binding was calculated according to the following formulas.
# (§4) % free state=(buffer chamber peak area ratio/plasma chamber peak area ratio)×100%
# (§5) % bound state=100%−% free state
# [4] = Plasma protein binding (PPB), RED plate dialysis, human plasma; format: in vitro ADME; conditions: 1 μM, 37° C., 5 h, read-out: PPB (% free state) H
# Procedure: as §1, §2, §3, §4, §5
# [5] = Plasma protein binding (PPB), RED plate dialysis, mouse plasma; format: in vitro ADME; conditions: 37° C., read-out: PPB (% free state) M
# Procedure: as §1, §2, §3, §4, §5
# plasma proteins = assay: Plasma protein binding (PPB), RED plate dialysis, human plasma; format: in vitro ADME
# Procedure: as §1, §2, §3, §4, §5
SMILES,IC50 [1],"fraction unbound at 5 h, 1 μM [3]","fraction unbound at 5 h, 1 μM [4]","fraction unbound at 5 h, 1 μM [5]",other results
[2H]c1c([2H])c([2H])c(-c2c(F)cc3c(N4CCN(C(=O)C=C)C[C@@H]4C)nc(=O)n(-c4c(C(C)C)ncnc4C(C)C)c3[n+]2[O-])c(O)c1[2H] [SZ-014051A/B],44 nM,–,–,–,–
C=CC(=O)N1CCN(c2nc(=O)n(-c3c(C)ccnc3CC)c3c2cc(F)c(-c2c(F)cccc2F)[n+]3[O-])[C@@H](C)C1 [SZ-014131],2090 nM,–,–,–,–
C=CC(=O)N1CCN(c2nc(=O)n(-c3c(C(C)C)ncnc3C(C)C)c3c2cc(F)c(-c2c(F)cccc2Cl)[n+]3[O-])[C@@H](C)C1 [SZ-014082A/B],60 nM,–,–,–,–
C=CC(=O)N1CCN(c2nc(=O)n(-c3c(C(C)C)ncnc3C(C)C)c3c2cc(F)c(-c2cc(F)ccc2O)[n+]3[O-])[C@@H](C)C1 [SZ-014044],145 nM,–,–,–,"Binding rate to KRAS G12C protein (LC-MS POC, %) 3 uM/5 min [2]: 84.1%; Binding rate to KRAS G12C protein (LC-MS POC, %) 3 uM/30 min [2]: 97.2%"
C=CC(=O)N1CCN(c2nc(=O)n(-c3c(C(C)C)ncnc3C(C)C)c3c2cc(Cl)c(-c2ccccc2O)[n+]3[O-])[C@@H](C)C1 [SZ-014031A],11.4 nM,–,–,–,–
"C=CC(=O)N1CCN(c2nc(=O)n(-c3c(C)ccnc3C(C)C)c3nc(-c4c(O)cccc4F)c(F)cc23)[C@@H](C)C1 [SZ-014004A, reference compound]",12 nM,0.145,0.068,0.112,–
"C=CC(=O)N1CCN(c2nc(=O)n(-c3c(C(C)C)ncnc3C(C)C)c3nc(-c4c(F)cccc4F)c(F)cc23)[C@@H](C)C1 [SZ-014138, reference compound]",34 nM,0.203,0.129,0.011,–
C=CC(=O)N1CCN(c2nc(=O)n(-c3c(C(C)C)cccc3C(C)C)c3c2cc(F)c(-c2ccccc2)[n+]3[O-])[C@@H](C)C1 [SZ-014130],139 nM,0.188,0.074,0.039,"molar concentration not bound to plasma proteins, times higher than reference compound SZ-014142 (plasma proteins; versus SZ-014142): no less than 30 times"
C=CC(=O)N1CCN(c2nc(=O)n(-c3c(C(C)C)ncnc3C(C)C)c3c2cc(F)c(-c2ccccc2)[n+]3[O-])[C@@H](C)C1 [SZ-014129],90 nM,0.517,0.455,0.336,"molar concentration not bound to plasma proteins, times higher than reference compound SZ-014141 (plasma proteins; versus SZ-014141): no less than 10 times"
C=CC(=O)N1CCN(c2nc(=O)n(-c3c(C(C)C)ncnc3C(C)C)c3c2cc(Cl)c(-c2ccccc2F)[n+]3[O-])[C@@H](C)C1 [SZ-014108A/B],9.4 nM,–,–,–,–
C=CC(=O)N1CCN(c2nc(=O)n(-c3c(C)ccnc3C(C)C)c3c2cc(F)c(-c2c(F)cccc2F)[n+]3[O-])[C@@H](C)C1 [SZ-014077A/B],191 nM,–,–,–,–
C=CC(=O)N1CCN(c2nc(=O)n(-c3c(CC)ncnc3CC)c3c2cc(F)c(-c2c(F)cccc2F)[n+]3[O-])[C@@H](C)C1 [SZ-014119],691 nM,–,–,–,"Binding rate to KRAS G12C protein (LC-MS POC, %) 3 uM/5 min [2]: 20.8%; Binding rate to KRAS G12C protein (LC-MS POC, %) 3 uM/30 min [2]: 79.2%"
C=CC(=O)N1CCN(c2nc(=O)n(-c3c(C(C)C)cccc3C(C)C)c3c2cc(Cl)c(-c2c(O)cccc2F)[n+]3[O-])[C@@H](C)C1 [SZ-014116AB],2.8 nM,–,–,–,–
C=CC(=O)N1CCN(c2nc(=O)n(-c3c(C(C)C)ncnc3C(C)C)c3c2cc(F)c(-c2c(F)cccc2F)[n+]3[O-])[C@@H](C)C1 [SZ-014053],41 nM,0.616,0.587,0.377,"molar concentration not bound to plasma proteins, times higher than reference compound SZ-014138 (plasma proteins; versus SZ-014138): no less than 4 times; Binding rate to KRAS G12C protein (LC-MS POC, %) 3 uM/5 min [2]: 85.6%; Binding rate to KRAS G12C protein (LC-MS POC, %) 3 uM/30 min [2]: 100.0%"
C=CC(=O)N1CCN(c2nc(=O)n(-c3c(C(C)C)ncnc3C(C)C)c3c2cc(F)c(-c2cccc(F)c2O)[n+]3[O-])[C@@H](C)C1 [SZ-014043],494 nM,–,–,–,"Binding rate to KRAS G12C protein (LC-MS POC, %) 3 uM/5 min [2]: 58.5%; Binding rate to KRAS G12C protein (LC-MS POC, %) 3 uM/30 min [2]: 90.0%"
C=CC(=O)N1CCN(c2nc(=O)n(-c3c(C(C)C)ncnc3C(C)C)c3c2cc(F)c(-c2cccc4ccccc24)[n+]3[O-])[C@@H](C)C1 [SZ-014013A/B],36 nM,–,–,–,–
"C=CC(=O)N1CCN(c2nc(=O)n(-c3c(C(C)C)cccc3C(C)C)c3nc(-c4ccccc4)c(F)cc23)[C@@H](C)C1 [SZ-014142, reference compound]",296 nM,0.008,0.002,0.047,–
C=CC(=O)N1CCN(c2nc(=O)n(-c3c(C)ccnc3C(C)C)c3c2cc(F)c(-c2ccccc2F)[n+]3[O-])[C@@H](C)C1 [SZ-014011A/B],405 nM,–,–,–,"Binding rate to KRAS G12C protein (LC-MS POC, %) 3 uM/5 min [2]: 37.8%; Binding rate to KRAS G12C protein (LC-MS POC, %) 3 uM/30 min [2]: 75.5%"
C=CC(=O)N1CCN(c2nc(=O)n(-c3c(C(C)C)ncnc3C(C)C)c3c2cc(F)c(-c2c(F)ccc(F)c2O)[n+]3[O-])[C@@H](C)C1 [SZ-014062AB],207 nM,–,–,–,–
C=CC(=O)N1CCN(c2nc(=O)n(-c3c(C)ccnc3C(C)C)c3c2cc(F)c(-c2ccccc2O)[n+]3[O-])[C@@H](C)C1 [SZ-014010A/B],442 nM,–,–,–,"Binding rate to KRAS G12C protein (LC-MS POC, %) 3 uM/5 min [2]: 47.7%; Binding rate to KRAS G12C protein (LC-MS POC, %) 3 uM/30 min [2]: 84.9%"
"C=CC(=O)N1CCN(c2nc(=O)n(-c3c(C(C)C)cccc3C(C)C)c3nc(-c4c(F)cccc4F)c(F)cc23)[C@@H](C)C1 [SZ-014139, reference compound]",81 nM,0.022,0.015,0.007,–
C=CC(=O)N1CCN(c2nc(=O)n(-c3c(C(C)C)ncnc3C(C)C)c3c2cc(F)c(-c2ccccc2O)[n+]3[O-])[C@@H](C)C1 [SZ-014111A/B],31 nM,–,–,–,–
C=CC(=O)N1CCN(c2nc(=O)n(-c3c(C)ccnc3C(C)C)c3c2cc(F)c(-c2c(O)cccc2F)[n+]3[O-])[C@@H](C)C1 [SZ-014089A/B],143 nM,–,–,–,–
"C=C(F)C(=O)N1CCN(c2nc(=O)n(-c3c(C(C)C)ncnc3C(C)C)c3nc(-c4c(F)cccc4F)c(F)cc23)[C@@H](C)C1 [SZ-014137, reference compound]",3540 nM,0.114,0.076,0.005,–
"C=CC(=O)N1CCN(c2nc(=O)n(-c3c(C(C)C)ncnc3C(C)C)c3nc(-c4ccccc4)c(F)cc23)[C@@H](C)C1 [SZ-014141, reference compound]",170 nM,0.127,0.04,0.008,–
